Measured values as given in US20250049817A1, “JAK INHIBITOR WITH A VITAMIN D ANALOG FOR TREATMENT OF SKIN DISEASES” (INCYTE CORPORATION, priority 2020, published 2025).
pIC50: −log10 of the molar value.

Experiments:
[1] = molecular target: human JAK1 (a.a. 837-1142) (Homo sapiens, UniProt P23458); experiment: In vitro JAK kinase assay (HTRF), JAK1; type: biochemical; settings: 1 mM ATP
[2] = test system: human JAK1 (a.a. 837-1142); experiment: In vitro JAK kinase assay (HTRF), JAK1; type: biochemical; settings: JAK2/JAK1 IC50 ratio, 1 mM ATP

pIC50 [1] | JAK2/JAK1 [2] | SMILES
> 8.00 | >10 | N#CCC(C1CCN(c2cccc(Cl)n2)C1)n1cc(-c2ncnc3[nH]ccc23)cn1 (single isomer, unassigned) [Compound 6, 3-[1-(6-chloropyridin-2-yl)pyrrolidin-3-yl]-3-[4-(7H-pyrrolo[2,3-d]pyrimidin-4-yl)-1H-pyrazol-1-yl]propanenitrile]
> 8.00 | >10 | N#CCC1(n2cc(-c3ncnc4[nH]ccc34)cn2)CN(C2CCN(C(=O)c3ccnc(C(F)(F)F)c3F)CC2)C1 [Compound 1, {1-{1-[3-Fluoro-2-(trifluoromethyl)isonicotinoyl]piperidin-4-yl}-3-[4-(7H-pyrrolo [2,3-d]pyrimidin-4-yl)-1H-pyrazol-1-yl]azetidin-3-yl}acetonitrile]
> 8.00 | >10 | N#CCC1(n2cc(-c3ncnc4[nH]ccc34)cn2)CN(C2CCN(C(=O)Nc3ccc(F)cc3C(F)(F)F)CC2)C1 [Compound 2, 4-{3-(Cyanomethyl)-3-[4-(7H-pyrrolo[2,3-d]pyrimidin-4-yl)-1H-pyrazol-1-yl]azetidin-1-yl}-N-[4-fluoro-2-(trifluoromethyl)phenyl] piperidine-1-carboxamide]
> 8.00 | >10 | N#CCC1(n2cc(-c3ncnc4[nH]ccc34)cn2)CN(C2CCN(C(=O)c3ccnc(C(F)(F)F)n3)CC2)C1 [Compound 3, [3-[4-(7H-pyrrolo[2,3-d]pyrimidin-4-yl)-1H-pyrazol-1-yl]-1-(1-{[2-(trifluoromethyl)pyrimidin-4-yl]carbonyl}piperidin-4-yl)azetidin-3-yl]acetonitrile]
> 7.00 | >10 | C[C@@H](O)c1nc2cnc3ccsc3c2n1[C@H]1CC[C@H](CC#N)OC1 [Compound 5, ((2R,5S)-5-{2-[(1R)-1-hydroxyethyl]-1H-imidazo[4,5-d]thieno[3,2-b]pyridin-1-yl}tetrahydro-2H-pyran-2-yl)acetonitrile]
> 8.00 | >10 | N#CCC(C1CCN(c2nc3cccnc3o2)C1)n1cc(-c2ncnc3[nH]ccc23)cn1 (stereo not shown) [Compound 7, 3-(1-[1,3]oxazolo[5,4-b]pyridin-2-ylpyrrolidin-3-yl)-3-[4-(7H-pyrrolo[2,3-d]pyrimidin-4-yl)-1H-pyrazol-1-yl]propanenitrile]
> 8.00 | >10 | N#CCC(CN1CCN(C(=O)c2ccc(C#N)cc2F)CC1)n1cc(-c2ncnc3[nH]ccc23)cn1 (stereo not shown) [Compound 8, 4-[(4-{3-cyano-2-[4-(7H-pyrrolo[2,3-d]pyrimidin-4-yl)-1H-pyrazol-1-yl]propyl}piperazin-1-yl)carbonyl]-3-fluorobenzonitrile]
> 8.00 | >10 | N#CCC(CN1CCN(C(=O)c2ccc(C#N)cc2F)CC1)n1ccc(-c2ncnc3[nH]ccc23)c1 (stereo not shown) [Compound 9, 4-[(4-{3-cyano-2-[3-(7H-pyrrolo[2,3-d]pyrimidin-4-yl)-1H-pyrrol-1-yl]propyl}piperazin-1-yl)carbonyl]-3-fluorobenzonitrile]
> 8.00 | >10 | N#CC[C@]1(n2cc(-c3ncnc4[nH]ccc34)cn2)C[C@H](N2CCN(C(=O)c3ccnc(C(F)(F)F)n3)CC2)C1 [Compound 10, [trans-1-[4-(7H-pyrrolo[2,3-d]pyrimidin-4-yl)-1H-pyrazol-1-yl]-3-(4-{[2-(trifluoromethyl)pyrimidin-4-yl]carbonyl}piperazin-1-yl)cyclobutyl]acetonitrile]
> 8.00 | >10 | N#CC[C@]1(n2cc(-c3ncnc4[nH]ccc34)cn2)C[C@H](N2CCC(Oc3cc(CN4CC(O)C4)cc(C(F)(F)F)n3)CC2)C1 [Compound 11, {trans-3-(4-{[4-[(3-hydroxyazetidin-1-yl)methyl]-6-(trifluoromethyl)pyridin-2-yl]oxy}piperidin-1-yl)-1-[4-(7H-pyrrolo[2,3-d]pyrimidin-4-yl)-1H-pyrazo1-1-yl]cyclobutyl}acetonitrile]
> 8.00 | >10 | N#CC[C@]1(n2cc(-c3ncnc4[nH]ccc34)cn2)C[C@H](N2CCC(Oc3cc(CN4CCC[C@H]4CO)cc(C(F)(F)F)n3)CC2)C1 [Compound 12, {trans-3-(4-{[4-{[(2S)-2-(hydroxymethyl)pyrrolidin-1-yl]methyl}-6-(trifluoromethyl)pyridin-2-yl]oxy}piperidin-1-yl)-1-[4-(7H-pyrrolo[2,3-d]pyrimidin-4-yl)-1H-pyrazol-1-yl]cyclobutyl}acetonitrile]
> 8.00 | >10 | N#CC[C@]1(n2cc(-c3ncnc4[nH]ccc34)cn2)C[C@H](N2CCC(Oc3cc(CN4CCC[C@@H]4CO)cc(C(F)(F)F)n3)CC2)C1 [Compound 13, {trans-3-(4-{[4-{[(2R)-2-(hydroxymethyl)pyrrolidin-1-yl]methyl}-6-(trifluoromethyl)pyridin-2-yl]oxy}piperidin-1-yl)-1-[4-(7H-pyrrolo[2,3-d]pyrimidin-4-yl)-1H-pyrazol-1-yl]cyclobutyl}acetonitrile]
> 8.00 | >10 | C[C@H](NC(=O)c1cc(F)c(N2CC(CC#N)(n3cc(-c4ncnc5[nH]ccc45)cn3)C2)cc1F)C(F)(F)F [Compound 16, 4-{3-(cyanomethyl)-3-[4-(7H-pyrrolo[2,3-d]pyrimidin-4-yl)-1H-pyrazol-1-yl]azetidin-1-yl]-2,5-difluoro-N-[(1S)-2,2,2-trifluoro-1-methylethyl]benzamide]
> 8.00 | >10 | N#CCC1(n2cc(-c3ncnc4[nH]ccc34)cn2)CN([C@H]2CC[C@@H](Oc3cc(CCO)nc(C(F)(F)F)n3)CC2)C1 [Compound 18, {1-(cis-4-{[6-(2-hydroxyethyl)-2-(trifluoromethyl)pyrimidin-4-yl]oxy}cyclohexyl)-3-[4-(7H-pyrrolo[2,3-d]pyrimidin-4-yl)-1H-pyrazol-1-yl]azetidin-3-yl}acetonitrile]
> 8.00 | >10 | CCNCc1cc(O[C@H]2CC[C@@H](N3CC(CC#N)(n4cc(-c5ncnc6[nH]ccc56)cn4)C3)CC2)nc(C(F)(F)F)c1 [Compound 19, {1-(cis-4-{[4-[(ethylamino)methyl]-6-(trifluoromethyl)pyridin-2-yl]oxy}cyclohexyl)-3-[4-(7H-pyrrolo[2,3-d]pyrimidin-4-yl)-1H-pyrazol-1-yl]azetidin-3-yl}acetonitrile]
> 8.00 | >10 | CC(C)(O)c1cc(O[C@H]2CC[C@@H](N3CC(CC#N)(n4cc(-c5ncnc6[nH]ccc56)cn4)C3)CC2)nc(C(F)(F)F)c1 [Compound 20, {1-(cis-4-{[4-(1-hydroxy-1-methylethyl)-6-(trifluoromethyl)pyridin-2-yl]oxy]cyclohexyl)-3-[4-(7H-pyrrolo[2,3-d]pyrimidin-4-yl)-1H-pyrazol-1-yl]azetidin-3-yl}acetonitrile]
> 8.00 | >10 | N#CCC1(n2cc(-c3ncnc4[nH]ccc34)cn2)CN([C@H]2CC[C@@H](Oc3cc(CN4CC[C@@H](O)C4)cc(C(F)(F)F)n3)CC2)C1 [Compound 21, {1-(cis-4-{[4-{[(3R)-3-hydroxypyrrolidin-1-yl]methyl}-6-(trifluoromethyl)pyridin-2-yl]oxy}cyclohexyl)-3-[4-(7H-pyrrolo[2,3-d]pyrimidin-4-yl)-1H-pyrazol-1-yl]azetidin-3-yl}acetonitrile]
